The values that follow come from patent US10697020B2, “MicroRNA-129 as a biomarker for colorectal cancer” (THE RESEARCH FOUNDATION FOR THE STATE UNIVERSITY OF NEW YORK, priority 2013, dated 2020).

pIC50: −log10 of the molar value. Read-outs that look alike come from different tables or passages of the source.

Test [1] deals with HCT116 cells. Put plainly: 5-FU treatment and cytotoxicity assay (WST-1). The format is cell-based. To be noted: Homo sapiens, HCT-116, 72 h, read-out: IC50 (50% growth inhibition, WST-1). On the procedure:
Twenty-four hours after transfection, HCT116 cells were plated in 96-well plates at 2×10^3 cells per well in triplicates in 100 μl of medium. After 24 hours, fresh medium containing 5-FU alone (ranged from 1 to 4 μM) or miR-129 precursor alone (ranged from 10 nM to 40 nM) or 5-FU and miR-129 together (at a constant ratio 1:10, with increasing concentrations of both compounds) were added, and cells were cultured for an additional 72 hours. Cell viability was measured using the WST-1 assay, and concentration-dependent curves were generated based on the cell viability. The combination index was calculated by CompuSyn software. See, Chou T C et al. (2007).

In test [2] the test system is HCT116 cells. Put plainly: Colorectal cancer xenografts (HCT116) in NOD/SCID mice, tumor volume. Type of test: in vivo. To be noted: day 24. On the procedure:
When solid and palpable tumors with an average volume of 100-150 mm^3 were formed (at day 14), mice were randomly separated into four groups such that each group was treated either with negative control miRNA, miR-129 alone, 5-FU alone or miR-129 and 5-FU together. The miRNAs were complexed with siPORTamine and injected intratumorally while 5-FU (50 μg g^−1) was injected systemically via the tail vein. All injections were provided in 3-day intervals for a total of three times before the tumors were collected at day 24. […] Importantly, despite the overexpression, the expression levels of miR-129 copy number remained within the physiological range (less than 20 copies/cell based on cycle threshold value at 30, which is equal to the expression of miR-129 in normal colon mucosa). Moreover, the control tumor xenografts had no miR-129 expression (cycle threshold value at 35).
Ten-twelve week old NOD/SCID mice (Jackson Laboratories, Bar Harbor, […]., USA) were used for tumor implantation. All animal procedures were approved by the Stony Brook University Institutional Animal Care and Use Committee (IACUC). The tumor implantation and miRNA injection protocol was modified from Trang et al. (see Trang P., et al., Oncogene. (2010) 29(11):1580-7). The mice were anesthetized by isoflurane inhalation. HCT116 cells were subcutaneously injected into the lower back areas of the mice using 2.5×10^6 cells in 100 μl McCoy's 5A with 50% matrigel (BD Biosciences). The tumor size was measured using a caliper and tumor volume was calculated using the formula V=length×width^2/2. When tumor volumes reach 100-150 mm^3 at day 14 post-injection, the mice were randomly assigned into four groups. For the first two groups, 10 μM negative miRNA or miR-129 precursor (Ambion) complexed with 1.6 μl siPORTAmine (Ambion) in 50 μl McCoy's 5A was injected into the tumors every three days. For the third group, 5-FU (Sigma-Aldrich) was injected at 50 μg/g via the tail vein every three days. Finally, for the last group, both miR-129 precursor and 5-FU were injected as described above. The mice were euthanized on day 24 post-injection by CO2 inhalation, and tumors were dissected out for RNA isolation.

On to `O=c1[nH]cc(F)c(=O)[nH]1` [5-FU, 5-fluoro-1H-pyrimidine-2,4-dione, reference compound], for which the pIC50 was 5.64 in test [1] (5-FU alone) and 6.22 in test [1] (5-FU when combined with miR-129 (fixed ratio 1:10)). The “inhibition of tumor growth (in words)” value in test [2] (HCT116 xenograft, compared with negative miRNA or single agents) is “strong inhibitory effect”. For the same compound, in test [2] (treated days 14, 17, 20, miRNA intratumoral with siPORTamine, 5-FU 50 μg/g tail vein, control negative miRNA), the “average tumor volume, % of the control group” value is on record as 48.4%.
